Test: Iron sequestering activity of the compound assessed as [Fe(H2O)6]3+ formation at 10^-5 M at pH 7.4 by spectrophotometrically in presence of 10^-6 M total iron concentration

| SMILES | pM |
| --- | --- |
| O=C(N[C@H]1COC(=O)[C@@H](NC(=O)c2cccc(O)c2O)COC(=O)[C@@H](NC(=O)c2cccc(O)c2O)COC1=O)c1cccc(O)c1O | 35.5 |
| CN(C)C(=O)c1cc(S(=O)(=O)O)cc(O)c1O | 19.2 |
| O=C(NCCCCN(CCCNC(=O)c1cc(S(=O)(=O)O)cc(O)c1O)C(=O)c1cc(S(=O)(=O)O)cc(O)c1O)c1cc(S(=O)(=O)O)cc(O)c1O | 28.5 |
| O=C(NCc1cc(CNC(=O)c2cc(S(=O)(=O)O)cc(O)c2O)cc(CNC(=O)c2cc(S(=O)(=O)O)cc(O)c2O)c1)c1cc(S(=O)(=O)O)cc(O)c1O | 29.4 |
| O=C(NCc1cc(CNC(=O)c2cccc(O)c2O)cc(CNC(=O)c2cccc(O)c2O)c1)c1cccc(O)c1O | 29.1 |
| O=C(NCc1cc(S(=O)(=O)O)cc(O)c1O)c1cc(C(=O)NCc2cc(S(=O)(=O)O)cc(O)c2O)cc(C(=O)NCc2cc(S(=O)(=O)O)cc(O)c2O)c1 | 25.1 |
| CC(=O)N(O)CCCCCNC(=O)CCC(=O)N(O)CCCCCNC(=O)CCC(=O)N(O)CCCCCN | 26.6 |
